In brackets after ≈: the same amount, converted by molar mass. Where two headings read alike, the source gives them in different places.
Assays:
[1] = system: S. epidermidis (SEPI 12084); experiment: MIC, standard agar dilution method; type: cell-based; settings: Staphylococcus epidermidis, Table 1, Mueller Hinton agar, incubated overnight at 35° C., read-out: Oxazolidinone MIC Values (Gram+) SEPI 12084
Description: (§1) MIC Test Method The in vitro MICs of test compounds were determined by a standard agar dilution method. A stock drug solution of each analog is prepared in the preferred solvent, usually DMSO:H2O (1:3). Serial 2-fold dilutions of each sample are made using 1.0 ml aliquots of sterile distilled water. To each 1.0 ml aliquot of drug is added 9 ml of molten Mueller Hinton agar medium. The drug-supplemented agar is mixed, poured into 15×100 mm petri dishes, and allowed to solidify and dry prior to inoculation. Vials of each of the test organisms are maintained frozen in the vapor phase of a liquid nitrogen freezer. Test cultures are grown overnight at 35° C. on the medium appropriate for the organism. Colonies are harvested with a sterile swab, and cell suspensions are prepared in Trypticase Soy broth (TSB) to equal the turbidity of a 0.5 McFarland standard. A 1:20 dilution of each suspension is made in TSB. […] The plates are incubated overnight at 35° C. Following incubation the Minimum Inhibitory Concentration (MIC μg/ml), the lowest concentration of drug that inhibits visible growth of the organism, is read and recorded.

E. Faecium (EFAE 12712) = experiment: MIC, standard agar dilution method; type: cell-based; settings: Enterococcus faecium; Table II; key: E. Faecium; agar dilution, Mueller Hinton agar, incubated overnight at 35° C.; read-out: EFAE 12712 MIC
Description: as §1, with “A stock drug solution of each analog is prepared in the preferred solvent, usually DMSO:H2O (1:3).” left out

[2] = system: Enterococcus faecalis (EFAE 9217); experiment: MIC, standard agar dilution method; type: cell-based; settings: incubated overnight at 35° C.
Description: as §1, with “A stock drug solution of each analog is prepared in the preferred solvent, usually DMSO:H2O (1:3).” left out

S. aureus (SAUR 9213) = experiment: MIC, standard agar dilution method; type: cell-based; settings: Staphylococcus aureus, incubated overnight at 35° C.
Description: as §1, with “A stock drug solution of each analog is prepared in the preferred solvent, usually DMSO:H2O (1:3).” left out

S. pyogenes (SPYO 152) = experiment: MIC, standard agar dilution method; type: cell-based; settings: Streptococcus pyogenes, incubated overnight at 35° C.
Description: as §1, with “A stock drug solution of each analog is prepared in the preferred solvent, usually DMSO:H2O (1:3).” left out

[3] = system: Moraxella catarrhalis (MCAT 30610); experiment: MIC, standard agar dilution method; type: cell-based; settings: Moraxella catarrhalis, Table II, Mueller Hinton agar, incubated overnight at 35° C.
Description: as §1, with “A stock drug solution of each analog is prepared in the preferred solvent, usually DMSO:H2O (1:3).” left out

[4] = system: Haemophilus influenzae (HINF 30063); experiment: MIC, standard agar dilution method; type: cell-based; settings: Haemophilus influenzae, Table II, Mueller Hinton agar, incubated overnight at 35° C.
Description: as §1, with “A stock drug solution of each analog is prepared in the preferred solvent, usually DMSO:H2O (1:3).” left out

[5] = system: S. epidermidis (SEPI 30593); experiment: MIC, standard agar dilution method; type: cell-based; settings: Staphylococcus epidermidis, Table II, Mueller Hinton agar, incubated overnight at 35° C.
Description: as §1, with “A stock drug solution of each analog is prepared in the preferred solvent, usually DMSO:H2O (1:3).” left out

[6] = system: S. pneumoniae (SPNE 9912); experiment: MIC, standard agar dilution method; type: cell-based; settings: Streptococcus pneumoniae, incubated overnight at 35° C.
Description: as §1, with “A stock drug solution of each analog is prepared in the preferred solvent, usually DMSO:H2O (1:3).” left out

[7] = Enterococcus faecalis, Table 1, Mueller Hinton agar, read-out: Oxazolidinone MIC Values (Gram+) EFAE 9217
[8] = Table II, key: Enterococcus faecalis, Mueller Hinton agar, read-out: EFAE 9217 MIC
[9] = Table 1, Mueller Hinton agar, read-out: Oxazolidinone MIC Values (Gram+) SAUR 9213
[10] = Table II, Mueller Hinton agar, read-out: SAUR 9213 MIC
[11] = Table 1, Mueller Hinton agar, read-out: Oxazolidinone MIC Values (Gram+) SPYO 152
[12] = Table II, Mueller Hinton agar, read-out: SPYO 152 MIC
[13] = Table 1, Mueller Hinton agar, read-out: Oxazolidinone MIC Values (Gram+) SPNE 9912
[14] = Table II, Mueller Hinton agar, read-out: SPNE 9912 MIC

melting point [°C] | MIC [1] [µg/mL] | MIC (E. Faecium (EFAE 12712)) [µg/mL] | MIC [2, 7] [µg/mL] | MIC [2, 8] [µg/mL] | MIC (S. aureus (SAUR 9213); [9]) [µg/mL] | MIC (S. aureus (SAUR 9213); [10]) [µg/mL] | MIC (S. pyogenes (SPYO 152); [11]) [µg/mL] | MIC (S. pyogenes (SPYO 152); [12]) [µg/mL] | MIC [3] [µg/mL] | MIC [4] [µg/mL] | MIC [5] [µg/mL] | MIC [6, 13] [µg/mL] | MIC [6, 14] [µg/mL] | SMILES
199 to 199.5 | 0.25 (≈ 0.705 µM) | 0.5 (≈ 1.41 µM) | 0.5 (≈ 1.41 µM) | 0.5 (≈ 1.41 µM) | 1 (≈ 2.82 µM) | 1 (≈ 2.82 µM) | 0.25 (≈ 0.705 µM) | 0.25 (≈ 0.705 µM) | 2 (≈ 5.64 µM) | 4 (≈ 11.3 µM) | 0.5 (≈ 1.41 µM) | < 0.125 | < 0.125 | NC(=S)NC[C@H]1CN(c2ccc(N3CCOCC3)c(F)c2)C(=O)O1 [Example 5, (S)-N-[[3-[3-Fluoro-4-(4-morpholinyl)phenyl]-2-oxo-5-oxazolidinyl]methyl]thiourea]
158 to 160 | 1 (≈ 2.71 µM) | 2 (≈ 5.43 µM) | 2 (≈ 5.43 µM) | 2 (≈ 5.43 µM) | 2 (≈ 5.43 µM) | 2 (≈ 5.43 µM) | 1 (≈ 2.71 µM) | 1 (≈ 2.71 µM) | 8 (≈ 21.7 µM) | 16 (≈ 43.4 µM) | 2 (≈ 5.43 µM) | 0.5 (≈ 1.36 µM) | 0.5 (≈ 1.36 µM) | CNC(=S)NC[C@H]1CN(c2ccc(N3CCOCC3)c(F)c2)C(=O)O1 [Example 6, (S)-N-[[3-[3-Fluoro-4-(4-morpholinyl)phenyl]-2-oxo-5-oxazolidinyl]methyl]-N′-methylthiourea]

Source: patent US6537986B2, “Oxazolidinone antibacterial agents having a thiocarbonyl funtionality” (Pharmacia & Upjohn Company, priority 1997, dated 2003)
